Drawing on PubChem BioAssay AID435021 (Vanderbilt High Throughput Screening Facility, 2010), this text covers remaining EC80 response for 41 compounds.

Activity calls are given as the source filed them.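 The calls were made as follows: active = response to a near-maximal acetylcholine dose cut to 15% or less of untreated controls; inactive = the rest.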

In the assay the target is Muscarinic acetylcholine receptor M1 (Homo sapiens) (UniProt P11229). The experiment in a line: inhibition of ACh EC80 calcium response at hM1 – cell-based, CHO-K1 hM1, Fluo-4 calcium, SAR follow-up (AID 435021). Particulars: at 30 µM, hits give low values.
Muscarinic acetylcholine receptor M1 (Homo sapiens), sequence (P11229 whole entry, looked up): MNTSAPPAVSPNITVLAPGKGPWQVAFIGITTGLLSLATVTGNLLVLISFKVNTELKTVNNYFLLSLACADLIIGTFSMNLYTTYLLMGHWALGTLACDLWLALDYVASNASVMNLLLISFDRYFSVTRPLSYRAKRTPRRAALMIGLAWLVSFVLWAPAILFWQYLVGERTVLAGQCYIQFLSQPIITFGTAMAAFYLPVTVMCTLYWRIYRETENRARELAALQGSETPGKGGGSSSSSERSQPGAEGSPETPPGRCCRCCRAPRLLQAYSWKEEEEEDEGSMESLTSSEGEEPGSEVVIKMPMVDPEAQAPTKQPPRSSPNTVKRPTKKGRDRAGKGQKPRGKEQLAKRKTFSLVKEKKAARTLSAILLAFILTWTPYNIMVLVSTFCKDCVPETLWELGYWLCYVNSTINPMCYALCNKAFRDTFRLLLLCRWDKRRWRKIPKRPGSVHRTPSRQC
`O=C(CCNS(=O)(=O)c1cccc2nsnc12)N1CCN(c2cccc(Cl)n2)CC1`: the remaining EC80 response is 5.92%.

For the compound `O=C(CCNS(=O)(=O)c1cccc2nsnc12)N1CCN(c2cc(C(F)(F)F)ccn2)CC1`, the remaining EC80 response was 35.4% (inactive).

`O=C(CCNS(=O)(=O)c1cccc2nsnc12)N1CCN(c2ccnc(Cl)c2)CC1`: the remaining EC80 response is 8.91%.

Consider `O=C([C@@H](F)CNS(=O)(=O)c1cccc2nonc12)N1CCN(c2ccncc2)CC1`, for which the remaining EC80 response is 56.6% (inactive).

Take `O=C(CCNS(=O)(=O)c1cccc2nsnc12)N1CCN(c2ccc(Br)cn2)CC1`: the remaining EC80 response was -0.332%.

`O=C(CCNS(=O)(=O)c1cccc2nsnc12)N1CCN(c2cccc(F)n2)CC1`: the remaining EC80 response is 3.23%.

Turning to `Cc1ccnc(N2CCN(C(=O)CCNS(=O)(=O)c3cccc4nsnc34)CC2)c1`, the remaining EC80 response is 45.8% (inactive).

Regarding `COc1cccnc1N1CCN(C(=O)CCNS(=O)(=O)c2cn(C)c(C)n2)CC1`, the remaining EC80 response is 98.5% (inactive).

In the case of `O=C(CCNS(=O)(=O)c1cccc2nsnc12)N1CCN(c2nc(Cl)ns2)CC1`, the remaining EC80 response is 31.6% (inactive).

Regarding `O=C(CCNS(=O)(=O)c1cccc2nonc12)N1CCN(c2ccc(Br)cn2)CC1`, the remaining EC80 response was 0.916%.

In the case of `COc1cccnc1N1CCN(C(=O)C(F)CNS(=O)(=O)c2cccc3nsnc23)CC1` (stereo unspecified), the remaining EC80 response was 19.4% (inactive).

For the compound `COc1cccnc1N1CCN(C(=O)CCNS(=O)(=O)c2cccc(C#N)c2)CC1`, the remaining EC80 response was 97% (inactive).

With `COc1cccnc1N1CCN(C(=O)CCNS(=O)(=O)c2ccccc2[N+](=O)[O-])CC1`, the remaining EC80 response was 90% (inactive).

As for `Cc1cccc(N2CCN(C(=O)CCNS(=O)(=O)c3cccc4nsnc34)CC2)n1`, the remaining EC80 response is 35.7% (inactive).

Regarding `Cc1cnccc1N1CCN(C(=O)CCNS(=O)(=O)c2cccc3nsnc23)CC1`, the remaining EC80 response was 1.43%.

As to `O=C(CCNS(=O)(=O)c1cccc2nsnc12)N1CCN(c2nc3ccccc3o2)CC1`, the remaining EC80 response is 13.3%.

In the case of `O=C(CCNS(=O)(=O)c1cccc2nonc12)N1CCN(c2ccncc2)CC1`, the remaining EC80 response was 3.02%.

As for `CN(CCC(=O)N1CCN(c2ccncc2)CC1)S(=O)(=O)c1cccc2nsnc12`, the remaining EC80 response is 35.8% (inactive).

Consider `COc1cccnc1N1CCN(C(=O)CCNS(=O)(=O)c2ccc([N+](=O)[O-])cc2)CC1`, for which the remaining EC80 response is 92.7% (inactive).

In the case of `COc1cccnc1N1CCN(C(=O)CCNS(=O)(=O)c2cccc(-c3noc(C)n3)c2)CC1`, the remaining EC80 response is 97.5% (inactive).

Take `O=C(CCNS(=O)(=O)c1cccc2nsnc12)N1CCN(c2cc(Cl)ccn2)CC1`: the remaining EC80 response was 10.1%.

As to `Cc1cc(Cl)nc(N2CCN(C(=O)CCNS(=O)(=O)c3cccc4nsnc34)CC2)c1C#N`, the remaining EC80 response is 3.37%.

Take `COc1cccnc1N1CCN(C(=O)C(F)CNS(=O)(=O)c2cccc3nonc23)CC1` (stereo unspecified): the remaining EC80 response is 29.7% (inactive).

With `O=C(C(F)CNS(=O)(=O)c1cccc2nonc12)N1CCN(c2ccncc2)CC1` (stereo unspecified), the remaining EC80 response was 2.42%.

For the compound `O=C(CCNS(=O)(=O)c1cccc2nsnc12)N1CCN(c2ccccn2)CC1`, the remaining EC80 response is 16.5% (inactive).

For the compound `O=C([C@H](F)CNS(=O)(=O)c1cccc2nonc12)N1CCN(c2ccncc2)CC1`, the remaining EC80 response is 8.19%.

As for `O=C(CCNS(=O)(=O)c1cccc2nsnc12)N1CCN(c2ncccc2C(F)(F)F)CC1`, the remaining EC80 response is 64.7% (inactive).

As for `O=C(CCNS(=O)(=O)c1cccc2nsnc12)N1CCN(c2ncccn2)CC1`, the remaining EC80 response was 62.7% (inactive).

Take `O=C(C(F)CNS(=O)(=O)c1cccc2nsnc12)N1CCN(c2ccncc2)CC1` (stereo unspecified): the remaining EC80 response is 13.6%.

With `O=C(CCNS(=O)(=O)c1cccc2nsnc12)N1CCN(c2ncc(Cl)cn2)CC1`, the remaining EC80 response is 7.16%.

As for `O=C(CCNS(=O)(=O)c1cccc2nsnc12)N1CCN(c2cccnc2)CC1`, the remaining EC80 response is 13.6%.

Take `O=C(CCNS(=O)(=O)c1cccc2nsnc12)N1CCN(c2cc(F)ccn2)CC1`: the remaining EC80 response was 6.52%.

`O=C(CCNS(=O)(=O)c1cccc2nsnc12)N1CCN(c2ccccc2F)CC1`: the remaining EC80 response is 63.5% (inactive).

As for `COc1cccc(N2CCN(C(=O)CCNS(=O)(=O)c3cccc4nsnc34)CC2)n1`, the remaining EC80 response is 14.4%.

With `N#Cc1ccccc1N1CCN(C(=O)CCNS(=O)(=O)c2cccc3nsnc23)CC1`, the remaining EC80 response is 43.9% (inactive).

For the compound `COc1cccnc1N1CCN(C(=O)CCNS(=O)(=O)c2ccc3nsnc3c2)CC1`, the remaining EC80 response was 77.1% (inactive).

For the compound `COc1ccccc1N1CCN(C(=O)CCNS(=O)(=O)c2cccc3nsnc23)CC1`, the remaining EC80 response was 102% (inactive).

As to `O=C(CCNS(=O)(=O)c1cccc2nsnc12)N1CCN(c2nc3ccccc3s2)CC1`, the remaining EC80 response was 6.19%.

Turning to `O=C(CCNS(=O)(=O)c1cccc2nsnc12)N1CCN(c2ccncc2)CC1`, the remaining EC80 response was 1.97%.

Regarding `O=C(CCNS(=O)(=O)c1cccc2nsnc12)N1CCN(c2nccs2)CC1`, the remaining EC80 response is 5.68%.

As to `COc1cccnc1N1CCN(C(=O)CCNS(=O)(=O)c2ccccc2C#N)CC1`, the remaining EC80 response is 91.8% (inactive).
